Test results reported in ChEMBL document CHEMBL4420076, “Amylin and calcitonin receptor agonist” (2017).
Numbered stars: 1 amine (or outer) side, 2 acyl side, 3 side chain; on linkers, the order of the positions; unused ones are H or OH. Peptide text beside a SMILES is read from it. * marks the point of attachment. C20 diacid = O=C(O)CCCCCCCCCCCCCCCCCCC(=O)*; γGlu = O=C(O)[C@H](CCC(=O)[*:2])N[*:1]

Key:
[1] = Solubility in 100 mM bistrispropane buffer at pH 8.0 incubated for 18 hrs by UPLC analysis; format: physicochemical
[2] = Solubility in 100 mM glycylglycine buffer at pH 3.0 incubated for 18 hrs by UPLC analysis; format: physicochemical
[3] = Solubility in 100 mM bistrispropane buffer at pH 7.5 incubated for 18 hrs by UPLC analysis; format: physicochemical
[4] = Solubility in 100 mM bistrispropane buffer at pH 7.0 incubated for 18 hrs by UPLC analysis; format: physicochemical
[5] = molecular target: T1, Amylin receptor AMY3; CALCR/RAMP3 (Homo sapiens, UniProt O60896+P30988); assay: Agonist activity at human amylin receptor expressed in BHK570 cells co-expressing RAMP3 assessed as increase in intracellular cAMP concentration incubated for 3 hrs in presence of 10% FBS by CRE luciferase reporter gene assay; format: functional, cell-based
T1 sequence (P30988 whole entry): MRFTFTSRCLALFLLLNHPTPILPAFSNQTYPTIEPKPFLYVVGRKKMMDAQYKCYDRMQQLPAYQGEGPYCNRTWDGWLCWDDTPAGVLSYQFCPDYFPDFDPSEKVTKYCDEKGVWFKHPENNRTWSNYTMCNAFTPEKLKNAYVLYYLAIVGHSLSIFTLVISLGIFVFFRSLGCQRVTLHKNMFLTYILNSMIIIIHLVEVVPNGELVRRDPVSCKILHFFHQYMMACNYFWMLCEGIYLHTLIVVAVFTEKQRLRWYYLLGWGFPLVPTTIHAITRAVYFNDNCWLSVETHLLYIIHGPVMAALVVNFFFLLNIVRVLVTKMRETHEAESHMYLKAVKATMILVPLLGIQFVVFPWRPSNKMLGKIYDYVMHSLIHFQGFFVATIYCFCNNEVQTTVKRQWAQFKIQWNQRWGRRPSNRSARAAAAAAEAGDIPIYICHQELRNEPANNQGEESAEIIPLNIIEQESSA
T1 sequence (O60896 whole entry): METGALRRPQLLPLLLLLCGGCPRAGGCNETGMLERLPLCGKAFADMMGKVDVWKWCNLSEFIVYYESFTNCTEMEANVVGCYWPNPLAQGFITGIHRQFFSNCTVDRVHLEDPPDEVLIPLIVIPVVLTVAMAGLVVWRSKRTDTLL

[6] = Solubility in 100 mM bistrispropane buffer at pH 6.0 incubated for 18 hrs by UPLC analysis; format: physicochemical
[7] = Stability in pH 7.5 buffer assessed as lag time for fibril formation at 1 uM by Thioflavin T based fluorescence assay; format: physicochemical; conditions: pH 7.5, 1 µM
[8] = Solubility in 100 mM bistrispropane buffer at pH 6.5 incubated for 18 hrs by UPLC analysis; format: physicochemical
[9] = Solubility in 100 mM glycylglycine buffer at pH 4.0 incubated for 18 hrs by UPLC analysis; format: physicochemical
Calcitonin receptor [10] = molecular target: T2, Calcitonin receptor (Homo sapiens, UniProt P30988); assay: Agonist activity at human calcitonin receptor expressed in BHK570 cells assessed as increase in intracellular cAMP concentration incubated for 3 hrs in presence of 10% FBS by CRE luciferase reporter gene assay; format: functional, cell-based
T2 sequence (P30988 whole entry): T1 sequence (P30988 whole entry)

Rattus norvegicus [11] = assay: Reduction in food intake in Sprague-Dawley rat at 3 nmol/kg measured 24 to 48 hrs post dose relative to control; format: functional; parameters: scale not given: the % may be the effect or the level left
[12] = Stability in pH 7.5 buffer assessed as compound recovery at 1 uM by Thioflavin T based fluorescence assay; format: physicochemical; conditions: read-out: Drug recovery
Rattus norvegicus [13] = assay: Reduction in food intake in Sprague-Dawley rat at 3 nmol/kg measured 0 to 24 hrs post dose relative to control; format: functional; parameters: scale not given: the % may be the effect or the level left
Calcitonin receptor [14] = molecular target: T2, Calcitonin receptor; assay: Agonist activity at human calcitonin receptor expressed in BHK570 cells assessed as increase in intracellular cAMP concentration incubated for 3 hrs in absence of albumin by CRE luciferase reporter gene assay; format: functional, cell-based
[15] = molecular target: T1, Amylin receptor AMY3; CALCR/RAMP3; assay: Agonist activity at human amylin receptor expressed in BHK570 cells co-expressing RAMP3 assessed as increase in intracellular cAMP concentration incubated for 3 hrs in absence of albumin by CRE luciferase reporter gene assay; format: functional, cell-based

solubility at 18 h [1] [µM]	solubility at 18 h [2] [µM]	solubility at 18 h [3] [µM]	solubility at 18 h [4] [µM]	EC50 [5] [nM]	solubility at 18 h [6] [µM]	Time [7] [h]	solubility at 18 h [8] [µM]	solubility at 18 h [9] [µM]	EC50 (Calcitonin receptor [10]) [nM]	remaining at 1 µM [12] [%]	EC50 (Calcitonin receptor [14]) [nM]	EC50 [15] [nM]	SMILES	Activity (Rattus norvegicus [11]) [%]	Activity (Rattus norvegicus [13]) [%]
≥ 200	≥ 200	≥ 200	≥ 200	0.15	≥ 200	> 45	≥ 200	≥ 200	0.068	100	–	–	CC(C)C[C@H](NC(=O)CNC(=O)[C@H](CO)NC(=O)[C@H](C)NC(=O)CC[C@H](NC(=O)CCCCCCCCCCCCCCCCCCC(=O)O)C(=O)O)C(=O)N[C@@H](CO)C(=O)N[C@H](C(=O)N[C@@H](C)C(=O)N[C@@H](C)C(=O)N[C@@H](CC(C)C)C(=O)NCC(=O)N[C@@H](CCCNC(=N)N)C(=O)N[C@@H](CC(C)C)C(=O)N[C@@H](CO)C(=O)N[C@@H](CCC(N)=O)C(=O)N[C@@H](CCC(=O)O)C(=O)N[C@@H](CC(C)C)C(=O)N[C@@H](Cc1cnc[nH]1)C(=O)N[C@@H](CCC(=O)O)C(=O)N[C@@H](CC(C)C)C(=O)N[C@@H](CCC(=O)O)C(=O)N[C@H](C(=O)N[C@@H](Cc1ccc(O)cc1)C(=O)N1CCC[C@H]1C(=O)N[C@@H](CCCNC(=N)N)C(=O)N[C@H](C(=O)N[C@@H](CCC(=O)O)C(=O)N[C@H](C(=O)NCC(=O)N[C@@H](CO)C(=O)NCC(=O)N[C@H](C(=O)N[C@@H](Cc1ccc(O)cc1)C(N)=O)[C@@H](C)O)[C@@H](C)O)[C@@H](C)O)[C@@H](C)O)[C@@H](C)O ({C20 diacid-γGlu}-ASGLSTAALGRLSQELHELETYPRTETGSGTY-NH2)	26	27
≥ 200	≥ 200	≥ 200	≥ 200	0.122	≥ 200	> 45	≥ 200	≥ 200	0.053	100	0.07	–	CC(C)C[C@H](NC(=O)CNC(=O)[C@H](CO)NC(=O)[C@H](C)NC(=O)CC[C@H](NC(=O)CCCCCCCCCCCCCCCCCCC(=O)O)C(=O)O)C(=O)N[C@@H](CO)C(=O)N[C@H](C(=O)N[C@@H](C)C(=O)N[C@H](C(=O)N[C@@H](CC(C)C)C(=O)NCC(=O)N[C@@H](CCCNC(=N)N)C(=O)N[C@@H](CC(C)C)C(=O)N[C@@H](CO)C(=O)N[C@@H](C)C(=O)N[C@@H](CCC(=O)O)C(=O)N[C@@H](CC(C)C)C(=O)N[C@@H](Cc1cnc[nH]1)C(=O)N[C@@H](CCC(=O)O)C(=O)N[C@@H](CC(C)C)C(=O)N[C@@H](C)C(=O)N[C@H](C(=O)N[C@@H](Cc1ccc(O)cc1)C(=O)N1CCC[C@H]1C(=O)N[C@@H](CCCNC(=N)N)C(=O)N[C@H](C(=O)N[C@@H](CCC(=O)O)C(=O)N[C@H](C(=O)NCC(=O)N[C@@H](CO)C(=O)NCC(=O)N[C@H](C(=O)N[C@@H](Cc1ccc(O)cc1)C(N)=O)[C@@H](C)O)[C@@H](C)O)[C@@H](C)O)[C@@H](C)O)C(C)C)[C@@H](C)O ({C20 diacid-γGlu}-ASGLSTAVLGRLSAELHELATYPRTETGSGTY-NH2)	28	26
≥ 200	≥ 200	≥ 200	≥ 200	0.185	≥ 200	8	≥ 200	–	0.099	2	0.045	0.054	CC(C)C[C@H](NC(=O)CNC(=O)[C@H](CO)NC(=O)[C@H](C)NC(=O)CC[C@H](NC(=O)CCCCCCCCCCCCCCCCCCC(=O)O)C(=O)O)C(=O)N[C@@H](CO)C(=O)N[C@H](C(=O)N[C@@H](C)C(=O)N[C@H](C(=O)N[C@@H](CC(C)C)C(=O)NCC(=O)N[C@@H](CCCNC(=N)N)C(=O)N[C@@H](CC(C)C)C(=O)N[C@@H](CO)C(=O)N[C@@H](CCC(N)=O)C(=O)N[C@@H](CCC(=O)O)C(=O)N[C@@H](CC(C)C)C(=O)N[C@@H](Cc1cnc[nH]1)C(=O)N[C@@H](CCC(=O)O)C(=O)N[C@@H](CC(C)C)C(=O)N[C@@H](CCC(N)=O)C(=O)N[C@H](C(=O)N[C@@H](CC(C)C)C(=O)N[C@@H](CCC(N)=O)C(=O)N[C@H](C(=O)N[C@@H](Cc1ccc(O)cc1)C(=O)N1CCC[C@H]1C(=O)N[C@@H](CCCNC(=N)N)C(=O)N[C@H](C(=O)N[C@@H](CCC(=O)O)C(=O)N[C@H](C(=O)NCC(=O)N[C@@H](CO)C(=O)N[C@@H](CCC(N)=O)C(=O)N[C@H](C(=O)N[C@@H](Cc1ccc(O)cc1)C(N)=O)[C@@H](C)O)[C@@H](C)O)[C@@H](C)O)[C@@H](C)O)[C@@H](C)O)C(C)C)[C@@H](C)O ({C20 diacid-γGlu}-ASGLSTAVLGRLSQELHELQTLQTYPRTETGSQTY-NH2)	10	25
≥ 200	≥ 200	≥ 200	≥ 200	0.14	≥ 200	> 45	≥ 200	–	0.073	100	–	0.031	CC(C)C[C@H](NC(=O)CC[C@H](NC(=O)CCCCCCCCCCCCCCCCCCC(=O)O)C(=O)O)C(=O)N[C@@H](CO)C(=O)NCC(=O)N[C@@H](CC(C)C)C(=O)N[C@@H](CO)C(=O)N[C@H](C(=O)N[C@@H](C)C(=O)N[C@H](C(=O)N[C@@H](CC(C)C)C(=O)NCC(=O)N[C@@H](CCCNC(=N)N)C(=O)N[C@@H](CC(C)C)C(=O)N[C@@H](CO)C(=O)N[C@@H](CCC(N)=O)C(=O)N[C@@H](CCC(=O)O)C(=O)N[C@@H](CC(C)C)C(=O)N[C@@H](Cc1cnc[nH]1)C(=O)N[C@@H](CCC(=O)O)C(=O)N[C@@H](CC(C)C)C(=O)N[C@@H](CCC(N)=O)C(=O)N[C@H](C(=O)N[C@@H](Cc1ccc(O)cc1)C(=O)N1CCC[C@H]1C(=O)N[C@@H](CCCNC(=N)N)C(=O)N[C@H](C(=O)N[C@@H](CCC(=O)O)C(=O)N[C@H](C(=O)NCC(=O)N[C@@H](CO)C(=O)N[C@@H](CCC(N)=O)C(=O)N[C@H](C(=O)N[C@@H](Cc1ccc(O)cc1)C(N)=O)[C@@H](C)O)[C@@H](C)O)[C@@H](C)O)[C@@H](C)O)C(C)C)[C@@H](C)O ({C20 diacid-γGlu}-LSGLSTAVLGRLSQELHELQTYPRTETGSQTY-NH2)	21	36
